In paper PMC6930494, “Immobilization of Naringinase from Penicillium decumbens on Chitosan Microspheres for Debittering Grapefruit Juice” (Molecules, 2019):

Tested on: T1, naringinase
T1 construct: gene naringinase alpha-L-rhamnosidase activity
Assay: initial rates of naringin hydrolysis, Davis or DNS method, Lineweaver-Burk
Type: biochemical, Penicillium decumbens
Settings: free enzyme; 0.1 M acetate buffer pH 4.0, 50 °C; naringin 0.5-20 mM; commercial enzyme complex
Description: initial rates of naringin hydrolysis, Davis or DNS method, Lineweaver-Burk on naringinase

A Km of 2560 µM was found for `C[C@@H]1O[C@@H](O[C@H]2[C@H](Oc3cc(O)c4c(c3)O[C@H](c3ccc(O)cc3)CC4=O)O[C@H](CO)[C@@H](O)[C@@H]2O)[C@H](O)[C@H](O)[C@H]1O` [naringin] in this work.
